The record followed here is patent US11351178B2, “Selective HDAC6 inhibitors” (ITALFARMACO S.P.A., priority 2017, dated 2022).

The test system of data set [1] is α-tubulin acetylation in 697 cell line. Briefly: In vitro α-tubulin acetylation in 697 cell line. It counts as cell-based. On the procedure: (§1) The in vitro α-tubulin and H3 histone acetylation determination was evaluated on B 697 […] cell line.
(§2) The test molecules were diluted from 20 mM stock solution in DMSO with RPMI 10% FCS+0.01% DMSO medium at 20× concentration compared to the final concentration, added to the cells (15×10^6 cells in a total volume of 30 ml in RPMI medium 10% FCS+0.01% DMSO) to obtain the final concentrations of 1000, 333, 111 and 37 nM and incubated at 37° C., 5% CO2 for 16 hours.
At the end of the incubation period, 5×10^6 cells were taken from each sample, centrifuged for 5 minutes at 1100 rpm and washed in 0.9% NaCl at 4° C. The resulting pellet was lysed by treating at 4° C. for 30 minutes with 150 μl of Complete Lysis-M (Roche, cat-04719956051) containing protease inhibitors and phosphatase (Complete Easy Pack proteinase inhibitor cocktail tablets cat: 04693116001, Phostop easypack phosphatase inhibitor cocktails, cat: 01906837001—Roche), then centrifuged 10 minutes at 14,000 rpm (20817×g). 0.150 μg of supernatant (total protein extract) were diluted in 100 μl of 1×PBS and immobilized in Maxisorp F96 NUN-IMMUNO Plate (Nunc cat #5442404) at room temperature overnight. Plates were washed twice with Wash Buffer (PBS1X+0.005% tween 20) and saturated for 1 hour at room temperature with 300 μL of 1×PBS containing 10 FCS. After washing with buffer (1×PBS containing 0.005% tween), the plates were incubated for two hours at room temperature in the presence of anti-acetylated-α-tubulin antibody (Monoclonal Anti-acetylated-tubulin clone 6-11B-1, mouse ascites fluid, cat #T6793 Sigma, 100 μl diluted 1:1000 in 1×PBS containing 10% FCS) or with total anti-α-tubulin antibody (Monoclonal Anti alpha-tubulin produced in mouse, cat #T6074 Sigma). After washing, 100 μl per well of TMB substrate kit was added for 10 minutes at room temperature in the dark. The reaction was stopped by adding 50 μl of 2N H2SO4. The plates were read at Multiskan Spectrum spectrophotometer at a wavelength of 450 nm.
The degree of acetylation was calculated by dividing the absorbance obtained for acetylated α-tubulin by the absorbance of total α-tubulin.
(§3) Test results of tubulin and H3 histone acetylation, expressed as fold increase of ratio of acetylated α-tubulin/total α-tubulin and H3Ac/H3Tot, respectively, of each sample relative to the control sample (untreated) are summarized in Tables 6 and 6′.

The test system of data set [2] is H3 histone acetylation in 697 cell line. Briefly: In vitro H3 histone acetylation in 697 cell line. It counts as cell-based. On the procedure:
as §1, §2
The remaining cells (10×10^6) were treated by acid extraction of histones (Kazuhiro et al., PNAS (2002), 99 (13) 8921-8926). Cells were centrifuged 5 min at 1100 rpm at 4° C. and washed once in 0.9% NaCl. The resulting pellet was lysed with […] (10 mM Tris.HCl, pH 6.5/50 mM sodium bisulphite, 1% Triton X-100/10 mM MgCl2/8.6% saccharose containing the protease inhibitor mixture (Roche)) for 20 min at 4° C. The resulting nucleus pellet was repeatedly washed in buffer until supernatant clarification (centrifuged at 7,500×g, 5 minutes after each wash) and finally washed in nucleus buffer (10 mM Tris.HCl/13 mm EDTA, pH 7, 4) and resuspended in 250 μl of 0.2 M HCl/H2SO4. Histone proteins were extracted in an acidic environment by incubating overnight at 4° C. under gentle shaking. After centrifugation at 14,000 rpm at 4° C. for 10 minutes, 1250 μl of cold acetone was added to the supernatant and incubated overnight at −20° C., resulting in the precipitation of histone proteins. The pellet obtained after centrifugation for 10 minutes at 14000 rpm and 4° C. was washed with cold acetone, evaporated to dryness and resuspended in 50 μl distilled water. The protein content determination of both total and histone extracts was carried out by a colorimetric assay using a BCA Protein Assay Kit (Pierce cat: 23227).
H3 histone acetylation and total H3 amount were quantified by commercial ELISA assays PathScan acetylated histone H3 Sandwich Elisa kit, cat #7232C and PathScan total histone H3 Sandwich Elisa Kit, cat #7253C Cell Signaling) according to supplier reported method and by detecting absorbance at 450 nm wavelength using Multiskan Spectrum. ELISA tests were performed by analysing 0.250 μg and 0.500 μg of histone extract of each sample. The degree of acetylation was calculated by dividing H3 histone absorbance by histone total absorbance.
as §3

Data set [3] is classed as in vivo. The note with it: mouse, Day 12, 100 mg/Kg ip. On the procedure: Following chronic intraperitoneal administration in C57BL/6 mice, compounds MTD was estimated by clinical (body weight and behaviour) and blood (white blood cells and platelets) parameters evaluation. The compounds were administered after dissolution in a H2O/PEG400 mixture in ratio 1:1 w/w containing 5% DMSO (for compound 17, 20% DMSO was used).
All animals were weighed the day before the treatment (day 0) and the average body weight was determined.
Animals (8 animals per group) were treated once a day starting from Day 1 during 5 consecutive days per week with: • a) the compounds at doses of 10, 30, 50 mg/kg ip, • b) Givinostat at 100 mg/kg (internal control) and • c) the vehicle solutions used for solubilizing the substances.
The volume of the solutions administered was 10 mL/Kg. The treatment was repeated for 2 weeks, for a total of 10 treatments/group.
On a daily basis any clinical sign (skin appearance, mobility and animal reactivity, respiration, etc.) indicating a possible toxicity of the compounds has been reported. The animal weight was evaluated on days 2, 4, 9 and 11.
On Day 1, 3, 5, 8, 10 and 12, blood sample (about 50 μL) were taken from the tail of the animal to evaluate the effect of the substances on blood parameters. Withdrawals were performed on 4 animals per group on alternate days.
Samples were harvested in tubes containing EDTA, appropriately diluted in physiological solution and analysed with a cell counter.
At the end of the study (day 12) the animals were sacrificed 60 minutes after the last treatment. Gross necropsy evaluation was performed to detect any internal organ abnormalities. Table 8 summarizes the data obtained in MTD determination experiments for some of the compounds according to the invention. Givinostat is a HDAC pan inhibitor and was used as a reference. The tested molecules are well tolerated.

Consider `CCN(CC)Cc1ccc2cc(COC(=O)Nc3ccc(C(=O)NO)cc3)ccc2c1` [Givinostat, reference compound], for which, in data set [1], the “tubulin acetylation (in words)” value was “good acetylation of both tubulin and H3 histone”. Moreover, the fold induction at 0.037 µM in data set [1] (Conc 37 nM, 16 hours, read-out: Tubulin acetylation (ratio of acetylated tubulin and total tubulin towards control)) worked out at 1. Moreover, the fold induction at 0.111 µM in data set [1] (Conc 111 nM, 16 hours, read-out: Tubulin acetylation (ratio of acetylated tubulin and total tubulin towards control)) is 4; in data set [2] (16 h, conc 111 nM, read-out: Acetylation of H3 histone (fold increase of acetylated H3/total H3 towards control)) it was 8. Further, the fold induction at 0.333 µM in data set [1] (Conc 333 nM, 16 hours, read-out: Tubulin acetylation (ratio of acetylated tubulin and total tubulin towards control)) was 12; in data set [2] (16 h, conc 333 nM, read-out: Acetylation of H3 histone (fold increase of acetylated H3/total H3 towards control)), 17. In addition, the fold induction at 1 µM in data set [1] (Conc 1000 nM, 16 hours, read-out: Tubulin acetylation (ratio of acetylated tubulin and total tubulin towards control)) was determined as 18; in data set [2] (16 h, conc 1000 nM, read-out: Acetylation of H3 histone (fold increase of acetylated H3/total H3 towards control)), 23. Besides, the “H3 histone acetylation (in words)” value in data set [2] is “good acetylation of both tubulin and H3 histone”. Moreover, in data set [3], the “Body weight % vs control” value is 0.9%. Also, the “Platelet % vs control” value in data set [3] is −7%. The “White blood cells % vs control” value in data set [3] was −72%.
